Source: ChEMBL document CHEMBL1255481, “The M230L nonnucleoside reverse transcriptase inhibitor resistance mutation in HIV-1 reverse transcriptase impairs enzymatic function and viral replicative capacity” (Antimicrob Agents Chemother, 2010)

How the values were obtained:
[1] = tested on: Human immunodeficiency virus 1; experiment: Antiviral activity against HIV 1 subtype B harboring reverse transcriptase M230L mutant infected in human TZM-bl cells assessed as inhibition of viral growth by luciferase reporter gene assay; assay type: functional, organism-based; details: Human immunodeficiency virus 1, subtype B
[2] = tested on: Human immunodeficiency virus 1; experiment: Antiviral activity against HIV 1 subtype B harboring wild type reverse transcriptase infected in human TZM-bl cells assessed as inhibition of viral growth by luciferase reporter gene assay; assay type: functional, organism-based; details: Human immunodeficiency virus 1, subtype B
[3] = biological target: T1, Human immunodeficiency virus type 1 reverse transcriptase (Human immunodeficiency virus 1, UniProt Q72547, M230L); experiment: Inhibition of DNA-dependent DNA polymerase activity of HIV1 subtype B reverse transcriptase M230L mutant by gel-based primer extension assay
[4] = biological target: T2, Human immunodeficiency virus type 1 reverse transcriptase (Human immunodeficiency virus 1, UniProt Q72547); experiment: Inhibition of RNA-dependent DNA polymerase activity of wild type HIV1 subtype B reverse transcriptase by filter-based filtration assay
[5] = tested on: Human immunodeficiency virus 1; experiment: Selectivity ratio of IC50 for DNA-dependent DNA polymerase activity of HIV1 subtype B reverse transcriptase M230L mutant to IC50 for DNA-dependent DNA polymerase activity of wild type HIV1 subtype B reverse transcriptase
[6] = biological target: T1, Human immunodeficiency virus type 1 reverse transcriptase; experiment: Inhibition of RNA-dependent DNA polymerase activity of HIV1 subtype B reverse transcriptase M230L mutant by filter-based filtration assay
[7] = biological target: T2, Human immunodeficiency virus type 1 reverse transcriptase; experiment: Inhibition of DNA-dependent DNA polymerase activity of wild type HIV1 subtype B reverse transcriptase by gel-based primer extension assay
[8] = tested on: Human immunodeficiency virus 1; experiment: Selectivity ratio of EC50 for antiviral activity against HIV 1 subtype B harboring reverse transcriptase M230L mutant to EC50 for antiviral activity against HIV 1 subtype B harboring wild type reverse transcriptase; assay type: functional
[9] = tested on: Human immunodeficiency virus 1; experiment: Selectivity ratio of IC50 for RNA-dependent DNA polymerase activity of HIV1 subtype B reverse transcriptase M230L mutant to IC50 for RNA-dependent DNA polymerase activity of wild type HIV1 subtype B reverse transcriptase

| Compound | EC50 [1] [nM] | EC50 [2] [nM] | IC50 [3] [nM] | IC50 [4] [nM] | Selectivity ratio [5] | IC50 [6] [nM] | IC50 [7] [nM] | Selectivity ratio [8] | Selectivity ratio [9] |
| --- | --- | --- | --- | --- | --- | --- | --- | --- | --- |
| O=C1Nc2ccc(Cl)cc2[C@@](C#CC2CC2)(C(F)(F)F)O1 [EFAVIRENZ] | 64.3 | 3.57 |  |  |  |  |  |  |  |
| Cc1cc(C)c(Nc2ccnc(Nc3ccc(C#N)cc3)n2)c(C)c1 [DAPIVIRINE] | 5.8 | 0.91 | 1290 | 19 | 9.9 | 172 | 131 | 6.4 | 9.1 |
| Cc1cc(C#N)cc(C)c1Oc1nc(Nc2ccc(C#N)cc2)nc(N)c1Br [ETRAVIRINE] | 7.27 | 1.25 |  |  |  |  |  |  |  |
| Cc1ccnc2c1NC(=O)c1cccnc1N2C1CC1 [NEVIRAPINE] | 2690 | 163 |  |  |  |  |  |  |  |
